Test results published in a melting point compilation (Tetko et al.; mined from patent text by program, amines drawn as free bases though some values may be those of a salt).

First: Cc1cc2c(c(C)c1O)C(C)(C)CN2C(=O)C(C)(C)C
Second: CN1C(=O)C(=Cc2cc(C(C)(C)C)c(O)c(C(C)(C)C)c2)SC1=S
The melting point of the first is lower: 143 to 144 °C for the first, over 230 °C for the second.

Compared with `COCCOc1ccc([N+](=O)[O-])cc1S(=O)(=O)Cl`, `CN(C)S(=O)(=O)c1ccc([N+](=O)[O-])cc1C(F)(F)F` is higher in melting point: 74 to 74.5 °C for the first, 95 to 97 °C for the second.

Compared with `CN1CCN(c2cccc3ccc(N)cc23)CC1`, `O=C1OC(CCCCN2CCN(c3ccccc3O)CC2)CN1c1ccccc1` (stereo not drawn) is lower in melting point: 157 to 159 °C for the first, 123 to 129 °C for the second.

Compared with `CCCCNC(=O)NS(=O)(=O)c1c(C)nn(C)c1OC`, `CCCC(=O)Nc1cc(/C=C/C(=O)OC)n(C)c1` is lower in melting point: 135 to 142 °C for the first, 109 to 110 °C for the second.

First: O=C(O)c1ccc(-c2nc(-c3ccc(Oc4ccccc4)cc3)no2)cc1
Second: O=C(O)CCC(=NOCc1ccc(OCc2coc(-c3ccccc3)n2)cc1)c1ccccc1
The melting point of the first is higher: 278 to 279 °C for the first, 144 to 145 °C for the second.

First: COC(=O)c1nc2cc(OC)c(OC)cc2n(C)c1=O
Second: CCN1C(=O)CN(C(=O)C(F)(F)F)Cc2cc(OC)c([N+](=O)[O-])cc21
The melting point of the first is higher: 222 °C for the first, 128 to 129 °C for the second.

First: COc1ccc(Cl)cc1C(NC(C)=N)(c1ccccc1)c1ccccc1
Second: COc1ccc(S(=O)(=O)c2c(-c3ccccc3)oc3ccccc23)cc1
The melting point of the first is lower: 143 to 145 °C for the first, 146 to 148 °C for the second.

Compared with `Cc1ccc(N2CCC(N)=N2)cc1`, `CCc1nnc(-c2ccc(N)cc2)n1-c1ccc(OC)cc1` is higher in melting point: 142 to 143 °C for the first, 210 °C for the second.

First: OCC1Cc2c([nH]c3ccccc23)CN1 (stereo not drawn)
Second: OCCCC(c1c[nH]c2ccccc12)c1c[nH]c2ccccc12
The melting point of the first is higher: 191 to 193 °C for the first, 110 to 115 °C for the second.

First: Cn1cc(C(=O)c2cccc(Cl)c2)cc1C(=O)O
Second: Nc1ccc(Cl)cc1C(=O)c1ccc(O)cc1
The melting point of the first is higher: 214 °C for the first, 170 to 175 °C for the second.

First: CC(=O)ON1C(C)(C)CC(OC(=O)c2ccccc2C(=O)OC2CC(C)(C)N(OC(C)=O)C(C)(C)C2)CC1(C)C
Second: COc1cc(OC2CCN(c3c(O)c(=O)c3=O)CC2)ccc1CC(=O)N1CCN(c2ccccc2C)CC1C(N)=O (stereo not drawn)
The melting point of the first is higher: 172 to 175 °C for the first, 144 to 148 °C for the second.

First: CCCc1[nH]c2cc(C(=O)O)ccc2c1C(=O)C1CCCCC1
Second: CN1CCC(c2[nH]c(=O)c3ccccc3c2-c2ccccc2)CC1
The melting point of the first is lower: 217 to 218 °C for the first, 258 to 260 °C for the second.

First: NNC(=O)c1cn(C2CCN(Cc3ccccc3)C2)nn1 (stereo not drawn)
Second: Cn1nc(NC(=O)c2ccccc2)c2c(=O)n3c(nc21)SCC3
The melting point of the first is lower: 123 °C for the first, 271 to 272 °C for the second.

First: CC1=c2cc(Br)ccc2=NC1=O
Second: Cc1ccc2c(c1)c(-c1ccccc1)nn2CO
The melting point of the first is higher: 119 to 120 °C for the first, 109 to 111 °C for the second.

`O=C1CCC2=C1C(c1ccc(F)c(F)c1)C1=C(CCS1)N2` (stereo not drawn) and `CC1(C)CC(=O)C2=C(C1)NC1=C(C(=O)CC(C)(C)C1)C2c1cc(Cl)cc(Cl)c1` cannot be ordered by melting point: over 260 °C for the first, 288 to 290 °C for the second.

Compared with `COc1ccc(CC(=O)C=NN=P(c2ccccc2)(c2ccccc2)c2ccccc2)cc1`, `O=C(Nc1nc(-c2ccccc2)c(-c2nc3ccccc3c(=O)n2-c2ccccc2Cl)s1)c1ccccc1` is higher in melting point: 111 to 112 °C for the first, 212 to 214 °C for the second.

First: Cc1ccc(NS(=O)(=O)c2ccccc2)cc1N
Second: CS(=O)(=O)c1ccc(-c2nc(C(F)(F)F)[nH]c2-c2ccccc2)cc1
The melting point of the first is lower: 142 to 144 °C for the first, 228 to 230 °C for the second.

Compared with `CC(=O)c1cccc(Oc2ncccc2OCCCc2ccncc2O)c1`, `CCOc1cccc(C(=O)N2CCc3cc(O)ccc3C2)c1` is higher in melting point: 101 to 102 °C for the first, 150 to 151 °C for the second.

First: O=C(O)CCCCCCC1=CCCC1=O
Second: O=C(CCCCO)NCC1Cc2ccccc2Cc2ccccc21 (stereo not drawn)
The melting point of the first is lower: 41 to 43 °C for the first, 96 to 98 °C for the second.

Compared with `CC(C)(C)OC(=O)NCc1ccc(OCCC2Oc3ccccc3N(Cc3ccccc3Cl)C2=O)cc1` (stereo not drawn), `CC(C)c1cccc(C(C)C)c1NC(=O)C1CCCC(CCCCCOc2ccccc2)(c2ccccc2)C1=O` (stereo not drawn) is higher in melting point: 121 to 123 °C for the first, 150 to 153 °C for the second.

Compared with `CN1CCN(Cc2ccc(C(=O)Nc3cccc(Nc4ncc(C#N)c(-c5cccs5)n4)c3)cc2)CC1`, `CCc1nn2c(c1Oc1cc(Cl)cc(Cl)c1)CN(Cc1ccc(C#N)cc1)CC2` is lower in melting point: 208 to 209 °C for the first, 149 to 150 °C for the second.

Compared with `CCn1c(=O)n(C)c(=O)c2c(C)onc21`, `CCCc1c(C(=O)OCC)c2c3c(ccc2n1C)OC1c2ccc(OC)cc2CCN1C3` (stereo not drawn) is higher in melting point: 88 to 89 °C for the first, 150 to 151 °C for the second.

First: COc1ccc(C(C)C)cc1-c1cc(-c2nnnn2CCc2ccccc2)c(O)cc1O
Second: CCN(Cc1ccccc1)C(=O)Cc1c(-c2ccc(Cl)c(Cl)c2)nc2cc(C)ccn12
The melting point of the first is higher: 206 to 209 °C for the first, 180 to 182 °C for the second.

First: Cn1cc(C2CCC(=O)C2)c2cc(F)ccc21 (stereo not drawn)
Second: CC1CCc2cc(F)cc3c(=O)c(C(=O)Cl)cn1c23 (stereo not drawn)
The melting point of the first is lower: 104 to 105 °C for the first, 183 to 186 °C for the second.

First: CCOC(=O)C=Cc1ccc(-n2ccnc2)cc1
Second: Nc1ccc2c(ccn2-c2ccncc2)c1
The melting point of the first is lower: 96 to 97.5 °C for the first, 149 to 154 °C for the second.

First: CCCCCNC12CN3CN(CN(C3)C1)C2
Second: CCCCc1nc2ccccn2c(=O)c1-c1ccc(NC[C@H]2CCCO2)cc1
The melting point of the first is lower: 119 to 120 °C for the first, 155 to 170 °C for the second.

First: N=C(NCc1cccs1)NN=Cc1c(Cl)cccc1Cl
Second: Nc1ccc(OCc2c(Cl)cccc2Cl)cc1[N+](=O)[O-]
The melting point of the first is lower: 135 to 137 °C for the first, 155 °C for the second.

Going from `NC(=NO)c1nc(Cl)c(-c2c(F)cccc2Cl)c(Cl)c1Br` to `Clc1cc(Cl)cc(-c2n[nH]cc2Cl)c1`, the melting point rises from 132 °C to 192 °C.

First: Fc1cc(OCCBr)ccc1OCc1ccccc1
Second: COc1ccccc1C1(c2ccccc2OC)CC1
The melting point of the first is lower: 63 to 65 °C for the first, 146 to 149 °C for the second.

Compared with `CC1(C)C2CC[C@]1(C)C(=O)C(C(=O)Nc1ccc(F)c(Cl)c1)C2=O` (stereo partly drawn), `COc1ccc2ncc(Cl)c(OC[C@@H]3CC[C@@H](NC(=O)OC(C)(C)C)CO3)c2c1` is higher in melting point: 87 to 89 °C for the first, 173 °C for the second.

First: CCOC(Cc1ccc(OCc2nc(C3CC3)oc2C)c2ccsc12)C(=O)O (stereo not drawn)
Second: CCc1[nH]n(C2CCCC2)c2nc(-c3ccc(OCCCN(C)C)cc3)nc(=O)c1-2
The melting point of the first is lower: 153 to 154 °C for the first, 175 to 178 °C for the second.

First: CN1CCC(C2c3cccc4c3N(CC4)c3ccccc3N2C(=O)OCC(Cl)(Cl)Cl)CC1 (stereo not drawn)
Second: O=c1ccc2c([nH]1)C(Nc1ccccc1)CCC2 (stereo not drawn)
The melting point of the first is lower: 160 to 162 °C for the first, 225 °C for the second.

First: Cc1cccc(-c2n[nH]cc2-c2ccc(F)c(-c3ccc(O)cc3)c2)n1
Second: CS(=O)(=O)c1ccc(-c2cccn2-c2ccc(F)c(Cl)c2)cc1
The melting point of the first is lower: 72 to 74 °C for the first, 146 to 149 °C for the second.

Compared with `NS(=O)(=O)c1cc2cc(O)cnc2s1`, `CCOC(=O)COc1cnc(S)nc1O` is lower in melting point: 270 to 271 °C for the first, 157 to 160 °C for the second.

Compared with `O=C(O)c1cc(=O)c2cc(OC(F)(F)F)ccc2o1`, `Cn1c(C(F)(F)F)ccc(-c2ccc(Cl)cc2F)c1=O` is lower in melting point: 192 to 194 °C for the first, 103 to 104 °C for the second.

First: O=C1N(Cc2ccccn2)c2ccccc2C12COc1ccc3nonc3c12 (stereo not drawn)
Second: CN(C)C(=O)COc1cccc(C=Cc2ccc3ccccc3n2)c1
The melting point of the first is higher: 180 to 182 °C for the first, 104 to 106 °C for the second.

Compared with `CCCCCCOc1ccc(OC)c(Cc2cnc(N)nc2N)c1`, `CCCCc1oc2ccc(C(N)=O)cc2c1C(=O)c1ccc(OCCCN(CCCC)CCCC)cc1` is lower in melting point: 139 to 140 °C for the first, 90 to 92 °C for the second.

Compared with `CS(=O)(=O)Nc1ccc(C=O)cc1Oc1ccc(F)cc1F`, `Cc1cc2ccccc2n1Nc1ccncc1F` is higher in melting point: 156 to 157 °C for the first, 157 to 158 °C for the second.

Going from `Cc1nnc2n1-c1ccc([N+](=O)[O-])cc1C(c1ccccc1F)=NC2(C)C` to `COc1cc(C)nc(-c2cnnn2NS(=O)(=O)c2ccccc2Cl)n1`, the melting point falls from 195 °C to 139 °C.

First: O=C(Nc1cccc2ccccc12)NC(Cc1ccc(C(F)(F)F)cc1)C(O)c1ccc(F)cc1 (stereo not drawn)
Second: COc1ccc(C(Sc2ccc3ccccc3c2N)C(O)C(=O)O)cc1 (stereo not drawn)
The melting point of the first is higher: 222 to 223 °C for the first, 160 to 161 °C for the second.

`COC(=O)C=CCc1cc(C=CC(=O)OC(C)(C)C)cc(Cc2cccnc2)c1` and `CC(C)(C)OC(=O)NC[C@H]1CN(c2ccc3c(c2)CCCc2cn[nH]c2-3)C(=O)O1` cannot be ordered by melting point: 91 to 93 °C for the first, 85 to 100 °C for the second.

First: Nc1cnccc1CNC(=O)C1Cc2ccccc2N1S(=O)(=O)c1ccc(-c2cccc(C(F)(F)F)c2)cc1 (stereo not drawn)
Second: N=C(Nc1ccc2ccncc2c1)c1cccs1
The melting point of the first is lower: 105 to 108 °C for the first, 178 °C for the second.

First: CCOC(=O)c1cc(OCC)c(C(=O)OCC)c(OCC)c1
Second: CCOC(=O)C1=C(C)NC(N)=C(C(=O)OCC)C1C (stereo not drawn)
The melting point of the first is higher: 142 to 144 °C for the first, 140 °C for the second.

Compared with `COC(=O)CC(NCCN(C)C)C(=O)O` (stereo not drawn), `COc1cccc2cc(CN(C)CCNC(=O)C34CC5CC(CC(C5)C3)C4)oc12` is lower in melting point: 164 to 166 °C for the first, 156 to 158 °C for the second.

First: CCCCCCCCCCCCc1nnn(C(CCCCCCCCCCCC)C(=O)Nc2c(OC)cc(OC)cc2OC)n1 (stereo not drawn)
Second: CCN(CC)CCCC(=O)c1ccc2c(c1)Cc1cc(C(=O)CCCN(CC)CC)ccc1-2
The melting point of the first is higher: 138 to 140 °C for the first, 79 to 81 °C for the second.

First: COCN(c1cccc2cc(-c3nc[nH]n3)n(COC)c12)S(=O)(=O)c1cccs1
Second: COC(=O)c1[nH]c(-c2ccccc2)c(N=Cc2ccccc2)c1C(=O)OC
The melting point of the first is lower: 97 to 99 °C for the first, 218 to 220 °C for the second.

Compared with `CC[C@H](Cn1cnnc1)n1cnc2cc3c(=O)n([C@H](CC)Cn4ncnn4)cnc3cc2c1=O`, `CCN(CC)CCNC(=O)c1cnc2ccc(I)cc2c1Cl` is lower in melting point: 130 to 132 °C for the first, 76 to 78 °C for the second.

Compared with `O=C1OCCC12Sc1ccccc1C2=O` (stereo not drawn), `CC(CO)c1ccc2nc(-c3ccccc3)oc2c1` (stereo not drawn) is lower in melting point: 125 to 127 °C for the first, 98 °C for the second.

Compared with `COc1cc(Cl)cc(Cl)c1C(=O)NC(C)(C)CO`, `Cc1c(S(C)(=O)=O)ccc(C(=O)O)c1Cl` is higher in melting point: 131 to 132 °C for the first, 230 to 231 °C for the second.

Compared with `CC(C=Cc1ccccc1)NC(=O)c1ccccc1` (racemic), `C[C@@H](Nc1ncnc2cc(N)ncc12)c1ccccc1` is higher in melting point: 135 °C for the first, 232 °C for the second.

First: CC(=O)c1c[nH]c(CO)n1
Second: CC(C)c1cc2ncccc2cc1Oc1cnc(NC(CO)CO)nc1N
The melting point of the first is lower: 147 to 148 °C for the first, 172 to 174 °C for the second.

For `O=c1c2c(Cl)cc(N3CCNCC3)cc2n(Cc2ccccc2)c(=O)n1Cc1cccc(I)c1`, the melting point was 98 to 104 °C.
